# Source: US20080200454A1, “CARBON-LINKED TETRAHYDRO-PYRAZOLO-PYRIDINE MODULATORS OF CATHEPSIN S” (priority 2007, published 2008)
# Counter-ions that a name gives are not always drawn. Like-named read-outs stand apart in the source and are kept apart here.
# Target: Recombinant human cathepsin S (CatS) (Homo sapiens, UniProt P25774)
# Experiment: Recombinant human cathepsin S (CatS) inhibition assay, fluorogenic substrate Z-Valine-Valine-Arginine-AMC;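 note: Baculovirus-expressed CatS in pH 5.0 sodium acetate buffer with DTT and NaCl, fluorescence read each minute over 20 min, inhibition derived from rate slope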
# Sequence of Recombinant human cathepsin S (CatS) (P25774 115-331): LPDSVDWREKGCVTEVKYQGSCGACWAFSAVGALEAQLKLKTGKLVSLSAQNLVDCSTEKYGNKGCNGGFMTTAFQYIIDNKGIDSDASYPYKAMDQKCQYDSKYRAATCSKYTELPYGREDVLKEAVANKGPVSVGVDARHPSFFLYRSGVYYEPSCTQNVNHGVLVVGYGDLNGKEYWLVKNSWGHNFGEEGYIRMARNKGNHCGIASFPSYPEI
IC50,SMILES,IC50 (CatS IC50)
30 nM,"CS(=O)(=O)N1CCc2c(c(-c3ccc(Cl)c(C#Cc4ccc(CNC5CCCc6ccccc65)cc4)c3)nn2CCCN2CCN(c3ccccn3)CC2)C1 (stereo in doubt) [Example 215, (1R)—N-({4-[(2-Chloro-5-{5-(methylsulfonyl)-1-[3-(4-pyridin-2-ylpiperazin-1-yl)propyl]-4,5,6,7-tetrahydro-1H-pyrazolo[4,3-c]pyridin-3-yl}phenyl)ethynyl]phenyl}methyl)-1,2,3,4-tetrahydronaphthalen-1-amine]",
30 nM,"COC(=O)CNCc1cc(C#Cc2cc(-c3nn(CCCN4CCOCC4C)c4c3CN(C(N)=O)CC4)ccc2Cl)ccc1Cl (stereo in doubt) [Example 220, Methyl N-{[5-({5-[5-(aminocarbonyl)-1-{3-[(3S)-3-methylmorpholin-4-yl]propyl}-4,5,6,7-tetrahydro-1H-pyrazolo[4,3-c]pyridin-3-yl]-2-chlorophenyl}ethynyl)-2-chlorophenyl]methyl}glycinate]",
20 nM,"CC1COCCN1CCCn1nc(-c2ccc(Cl)c(C#Cc3ccc(Cl)c(CNCC(=O)O)c3)c2)c2c1CCN(C(N)=O)C2 (stereo in doubt) [Example 221, N-{[5-({5-[5-(Aminocarbonyl)-1-{3-[(3S)-3-methylmorpholin-4-yl]propyl}-4,5,6,7-tetrahydro-1H-pyrazolo[4,3-c]pyridin-3-yl]-2-chlorophenyl}ethynyl)-2-chlorophenyl]methyl}glycine]",
20 nM,"CC1COCCN1CCCn1nc(-c2ccc(Cl)c(C#Cc3ccc(Cl)c(CNCC4CCCO4)c3)c2)c2c1CCN(C(N)=O)C2 (stereo in doubt) [Example 223, 3-{4-Chloro-3-[(4-chloro-3-{[(tetrahydrofuran-2-ylmethyl)amino]methyl}phenyl)ethynyl]phenyl}-1-{3-[(3S)-3-methylmorpholin-4-yl]propyl}-1,4,6,7-tetrahydro-5H-pyrazolo[4,3-c]pyridine-5-carboxamide]",
,"CC1COCCN1CCCn1nc(-c2ccc(Cl)c(C#Cc3ccc(Cl)c(CNCc4ccccc4)c3)c2)c2c1CCN(C(N)=O)C2 (stereo in doubt) [Example 224, 3-{4-Chloro-3-[(4-chloro-3-{[(phenylmethyl)amino]methyl}phenyl)ethynyl]phenyl}-1-{3-[(3S)-3-methylmorpholin-4-yl]propyl}-1,4,6,7-tetrahydro-5H-pyrazolo[4,3-c]pyridine-5-carboxamide]",20 nM
80 nM,"C[C@H]1COCCN1CC(O)Cn1nc(-c2ccc(Cl)c(C#Cc3ccc(CNCc4ccc(Cl)cc4)cc3)c2)c2c1CCN(C(N)=O)C2 (stereo in doubt) [Example 258, 3-(4-Chloro-3-{4-[(4-chloro-benzylamino)-methyl]-phenylethynyl}-phenyl)-1-[(2S)-2-hydroxy-3-((3S)-3-methyl-morpholin-4-yl)-propyl]-1,4,6,7-tetrahydro-pyrazolo[4,3-c]pyridine-5-carboxylic acid amide]",
350 nM,"CC1COCCN1C[C@H](O)Cn1nc(-c2ccc(Cl)c(C#Cc3ccc(CNCc4ccc(Cl)cc4)cc3)c2)c2c1CCN(S(C)(=O)=O)C2 (stereo in doubt) [Example 266, (2S)-1-[3-(4-Chloro-3-{4-[(4-chloro-benzylamino)-methyl]-phenylethynyl}-phenyl)-5-methanesulfonyl-4,5,6,7-tetrahydro-pyrazolo[4,3-c]pyridin-1-yl]-3-((3S)-3-methyl-morpholin-4-yl)-propan-2-ol]",
190 nM,"CS(=O)(=O)N1CCc2c(c(-c3ccc(Cl)c(C#Cc4ccc5[nH]ccc5c4)c3)nn2CCCN2CCOCC2)C1 [Example 1, 3-[4-Chloro-3-(1H-indol-5-ylethynyl)-phenyl]-5-methanesulfonyl-1-(3-morpholin-4-yl-propyl)-4,5,6,7-tetrahydro-1H-pyrazolo[4,3-c]pyridine]",
350 nM,"CS(=O)(=O)N1CCc2c(c(-c3ccc(Cl)c(CCc4ccc5[nH]ccc5c4)c3)nn2CCCN2CCOCC2)C1 [Example 2, 3-{4-Chloro-3-[2-(1H-indol-5-yl)-ethyl]-phenyl}-5-methanesulfonyl-1-(3-morpholin-4-yl-propyl)-4,5,6,7-tetrahydro-1H-pyrazolo[4,3-c]pyridine]",
270 nM,"CS(=O)(=O)N1CCc2c(c(-c3ccc(Cl)c(C#Cc4ccc(CC#N)cc4)c3)nn2CCCN2CCOCC2)C1 [Example 3, (4-{2-Chloro-5-[5-methanesulfonyl-1-(3-morpholin-4-yl-propyl)-4,5,6,7-tetrahydro-1H-pyrazolo[4,3-c]pyridin-3-yl]-phenylethynyl}-phenyl)-acetonitrile]",
750 nM,"CS(=O)(=O)N1CCc2c(c(-c3ccc(Cl)c(C#Cc4cccc(CC#N)c4)c3)nn2CCCN2CCOCC2)C1 [Example 4, (3-{2-Chloro-5-[5-methanesulfonyl-1-(3-morpholin-4-yl-propyl)-4,5,6,7-tetrahydro-1H-pyrazolo[4,3-c]pyridin-3-yl]-phenylethynyl}-phenyl)-acetonitrile]",
290 nM,"CS(=O)(=O)N1CCc2c(c(-c3ccc(Cl)c(C#Cc4ccc(CO)cc4)c3)nn2CCCN2CCOCC2)C1 [Example 5, (4-{2-Chloro-5-[5-methanesulfonyl-1-(3-morpholin-4-yl-propyl)-4,5,6,7-tetrahydro-1H-pyrazolo[4,3-c]pyridin-3-yl]-phenylethynyl}-phenyl)-methanol]",
950 nM,"CS(=O)(=O)N1CCc2c(c(-c3ccc(Cl)c(C#Cc4cccc(CO)c4)c3)nn2CCCN2CCOCC2)C1 [Example 6, (3-{2-Chloro-5-[5-methanesulfonyl-1-(3-morpholin-4-yl-propyl)-4,5,6,7-tetrahydro-1H-pyrazolo[4,3-c]pyridin-3-yl]-phenylethynyl}-phenyl)-methanol]",
250 nM,"CS(=O)(=O)N1CCc2c(c(-c3ccc(Cl)c(C#Cc4ccc(O)cc4)c3)nn2CCCN2CCOCC2)C1 [Example 7, 4-{2-Chloro-5-[5-methanesulfonyl-1-(3-morpholin-4-yl-propyl)-4,5,6,7-tetrahydro-1H-pyrazolo[4,3-c]pyridin-3-yl]-phenylethynyl}-phenol]",
190 nM,"CS(=O)(=O)N1CCc2c(c(-c3ccc(Cl)c(C#Cc4ccc(CCCC(=O)O)cc4)c3)nn2CCCN2CCOCC2)C1 [Example 8, 4-(4-{2-Chloro-5-[5-methanesulfonyl-1-(3-morpholin-4-yl-propyl)-4,5,6,7-tetrahydro-1H-pyrazolo[4,3-c]pyridin-3-yl]-phenylethynyl}-phenyl)-butyric acid]",
160 nM,"CS(=O)(=O)N1CCc2c(c(-c3ccc(Cl)c(C#Cc4ccc(CCC(=O)O)cc4)c3)nn2CCCN2CCOCC2)C1 [Example 9, 3-(4-{2-Chloro-5-[5-methanesulfonyl-1-(3-morpholin-4-yl-propyl)-4,5,6,7-tetrahydro-1H-pyrazolo[4,3-c]pyridin-3-yl]-phenylethynyl}-phenyl)-propionic acid]",
420 nM,"COC(=O)Cc1ccc(C#Cc2cc(-c3nn(CCCN4CCOCC4)c4c3CN(S(C)(=O)=O)CC4)ccc2Cl)cc1 [Example 10, (4-{2-Chloro-5-[5-methanesulfonyl-1-(3-morpholin-4-yl-propyl)-4,5,6,7-tetrahydro-1H-pyrazolo[4,3-c]pyridin-3-yl]-phenylethynyl}-phenyl)-acetic acid methyl ester]",
2600 nM,"COC(=O)Cc1cccc(C#Cc2cc(-c3nn(CCCN4CCOCC4)c4c3CN(S(C)(=O)=O)CC4)ccc2Cl)c1 [Example 11, (3-{2-Chloro-5-[5-methanesulfonyl-1-(3-morpholin-4-yl-propyl)-4,5,6,7-tetrahydro-1H-pyrazolo[4,3-c]pyridin-3-yl]-phenylethynyl}-phenyl)-acetic acid methyl ester]",
,"CS(=O)(=O)N1CCc2c(c(-c3ccc(Cl)c(C#Cc4cccs4)c3)nn2CCCN2CCOCC2)C1 [Example 12, 3-(4-Chloro-3-thiophen-2-ylethynyl-phenyl)-5-methanesulfonyl-1-(3-morpholin-4-yl-propyl)-4,5,6,7-tetrahydro-1H-pyrazolo[4,3-c]pyridine]",790 nM
,"CS(=O)(=O)N1CCc2c(c(-c3ccc(Cl)c(C#Cc4ccc(Cl)c(Cl)c4)c3)nn2CCCN2CCOCC2)C1 [Example 13, 3-[4-Chloro-3-(3,4-dichloro-phenylethynyl)-phenyl]-5-methanesulfonyl-1-(3-morpholin-4-yl-propyl)-4,5,6,7-tetrahydro-1H-pyrazolo[4,3-c]pyridine]",320 nM
20000 nM,"CS(=O)(=O)N1CCc2c(c(-c3ccc(Cl)c(C#Cc4ccc(Oc5ccc(I)cc5)cc4)c3)nn2CCCN2CCOCC2)C1 [Example 14, 3-{4-Chloro-3-[4-(4-iodo-phenoxy)-phenylethynyl]-phenyl}-5-methanesulfonyl-1-(3-morpholin-4-yl-propyl)-4,5,6,7-tetrahydro-1H-pyrazolo[4,3-c]pyridine]",
150 nM,"CS(=O)(=O)N1CCc2c(c(-c3ccc(Cl)c(C#Cc4ccc(CC(=O)O)cc4)c3)nn2CCCN2CCOCC2)C1 [Example 15, (4-{2-Chloro-5-[5-methanesulfonyl-1-(3-morpholin-4-yl-propyl)-4,5,6,7-tetrahydro-1H-pyrazolo[4,3-c]pyridin-3-yl]-phenylethynyl}-phenyl)-acetic acid, trifluoroacetic acid salt]",
1150 nM,"CS(=O)(=O)N1CCc2c(c(-c3ccc(Cl)c(C#Cc4cccc(CC(=O)O)c4)c3)nn2CCCN2CCOCC2)C1 [Example 16, (3-{2-Chloro-5-[5-methanesulfonyl-1-(3-morpholin-4-yl-propyl)-4,5,6,7-tetrahydro-1H-pyrazolo[4,3-c]pyridin-3-yl]-phenylethynyl}-phenyl)-acetic acid]",
1900 nM,"CS(=O)(=O)N1CCc2c(c(-c3ccc(Cl)c(C#Cc4ccc(Oc5ccccc5)cc4)c3)nn2CCCN2CCOCC2)C1 [Example 17, 3-[4-Chloro-3-(4-phenoxy-phenylethynyl)-phenyl]-5-methanesulfonyl-1-(3-morpholin-4-yl-propyl)-4,5,6,7-tetrahydro-1H-pyrazolo[4,3-c]pyridine]",
180 nM,"CS(=O)(=O)N1CCc2c(c(-c3ccc(Cl)c(C#Cc4ccc(Br)cc4)c3)nn2CCCN2CCOCC2)C1 [Example 18, 3-[3-(4-Bromo-phenylethynyl)-4-chloro-phenyl]-5-methanesulfonyl-1-(3-morpholin-4-yl-propyl)-4,5,6,7-tetrahydro-1H-pyrazolo[4,3-c]pyridine]",
